Reference: patent US12496329B2, “Methods of using and compositions including an incretin analog” (Eli Lilly and Company, priority 2021, dated 2025)
Where two headings read alike, the source gives them in different places.

Key:
[1] = MAD study in individuals with diabetes: plasma pharmacokinetics; format: in vivo, human; settings: for AUC(0-inf) / Cmax / Tmax / half-life / CL/F: both sexes, human, plasma
Description: (§1) Studies are designed to evaluate the safety, tolerability, PD and PK of the GGG tri-receptor agonist (SEQ ID NO:1) in individuals with diabetes. The MAD study is a randomized, investigator- and participant-blind, placebo-controlled, multiple-ascending dose, single-site study conducted in individuals with diabetes (i.e., females or males aged 20-70 years, inclusive, with T2DM for at least 3 months and HbA1c at lead-in and screening of ≥7.0% and ≤10.5% and treated with diet and exercise alone or a stable dose of metformin for at least 3 months prior to screening, with stable body weight for 3 months prior to randomization and with a BMI of 23-50 kg/m^2 at screening).
(§2) Dose escalation of the GGG tri-receptor agonist is assessed over 12 weeks in cohorts with a starting dose of 0.5 mg. One cohort of 13 individuals is administered 0.5 mg for 12 weeks. A second cohort of 13 individuals is administered 1.5 mg for 12 weeks. A third cohort of 15 individuals is administered 3.0 mg for 12 weeks. A fourth cohort of 15 individuals is administered 3.0 mg for 4 weeks and then administered 6.0 mg for 8 weeks. A fifth cohort of 16 individuals is administered 3.0 mg for 2 weeks, administered 6.0 mg for 2 weeks, administered 9.0 mg for 4 weeks, and then administered 12 mg for 4 weeks. Alternate dose increment steps may be introduced based on emerging safety and tolerability data from the preceding cohorts, and the dose increment steps can be reduced. As a non-limiting example, in Cohort 4, escalation from starting dose of 3 mg may occur via a step-through dose of 4.5 mg before attaining 6 mg, in Cohort 5, escalation from starting dose of 3 to 12 mg may occur via an additional step through dose level of 4.5 mg, prior to the planned doses 6 and 9 mg. In addition to these proposed alternate regimens in Cohort 4 and Cohort 5, planned dose for escalation between cohorts and within cohorts may be further reduced if warranted by safety or tolerability data.
Blood samples are collected on Day 1 at pre-dose and at 12 hr, 24 hr, 48 hr (Day 2) and 72 hr post-dose, as well as at pre-dose on Days 7, 14 and 21, to determine plasma concentration of the GGG tri-receptor agonist. Blood samples also are collected on Day 29 at pre-dose and at 12 hr, 24 hr, 48 hr and 72 hr post-dose, as well as at pre-dose on Days 36, 43 and 50, to determine plasma concentration of the GGG tri-receptor agonist. Blood samples also are collected on Day 57 at pre-dose and at 12 hr, 24 hr, 48 hr and 72 hr post-dose, as well as at pre-dose on Days 64 and 71, to determine plasma concentration of the GGG tri-receptor agonist. Blood samples also are collected on Day 78 at pre-dose and at 12 hr, 24 hr, 48 hr and 72 hr post-dose, as well as at pre-dose on Day 85, to determine plasma concentration of the GGG tri-receptor agonist. Human plasma samples from individuals administered the GGG tri-receptor agonist are analyzed at Q2 Solutions (Ithaca, NY). Concentrations of the GGG tri-receptor agonist are assayed using a validated liquid chromatography high resolution mass spectrometry method, where the lower limits of quantification are 1 ng/ml or 3 ng/ml and the upper limit of quantification is 500 ng/mL.
Blood samples are likewise collected at Weeks 14 and 16 for PK analysis. As above, plasma concentrations are used to compute PK parameters using standard non-compartmental methods in a validated software program (Phoenix WinNonlin Version 8.1).

[2] = MAD study in individuals with diabetes: safety and tolerability; format: in vivo, human
Description: as §1, §2
In the event of drug hypersensitivity reactions (immediate or nonimmediate), samples are collected for antidrug antibody (ADA) analysis as close to the onset of the event as possible, at the resolution of the event, and 30 days following the onset of the event. Samples are analyzed using a validated electrochemiluminescence immunosorbent assay at BioAgilytix Labs (Durham, NC).

[3] = 12 mg, 3.0, 6.0, 9.0, 12.0 mg QW, Day 1
[4] = 12 mg, 3.0, 6.0, 9.0, 12.0 mg QW, Day 29
[5] = 12 mg, 3.0, 6.0, 9.0, 12.0 mg QW, Day 57
[6] = 12 mg, 3.0, 6.0, 9.0, 12.0 mg QW, Day 78

In the case of `CC[C@H](C)[C@H](NC(=O)[C@H](Cc1ccccc1)NC(=O)[C@H](C)NC(=O)C(C)(C)NC(=O)[C@H](CCC(N)=O)NC(=O)[C@H](C)NC(=O)[C@H](CCCCNC(=O)COCCOCCNC(=O)CC[C@H](NC(=O)CCCCCCCCCCCCCCCCCCC(=O)O)C(=O)O)NC(=O)[C@H](CCCCN)NC(=O)[C@H](CC(=O)O)NC(=O)[C@H](CC(C)C)NC(=O)[C@](C)(CC(C)C)NC(=O)[C@@H](NC(=O)[C@H](CO)NC(=O)[C@H](Cc1ccc(O)cc1)NC(=O)[C@H](CC(=O)O)NC(=O)[C@H](CO)NC(=O)[C@@H](NC(=O)[C@H](Cc1ccccc1)NC(=O)[C@@H](NC(=O)CNC(=O)[C@H](CCC(N)=O)NC(=O)C(C)(C)NC(=O)[C@@H](N)Cc1ccc(O)cc1)[C@@H](C)O)[C@@H](C)O)[C@@H](C)CC)C(=O)N[C@@H](CCC(=O)O)C(=O)N[C@@H](Cc1ccc(O)cc1)C(=O)N[C@@H](CC(C)C)C(=O)N[C@@H](CC(C)C)C(=O)N[C@@H](CCC(=O)O)C(=O)NCC(=O)NCC(=O)N1CCC[C@H]1C(=O)N[C@@H](CO)C(=O)N[C@@H](CO)C(=O)NCC(=O)N[C@@H](C)C(=O)N1CCC[C@H]1C(=O)N1CCC[C@H]1C(=O)N1CCC[C@H]1C(=O)N[C@@H](CO)C(N)=O` [GGG tri-receptor agonist, Y-Aib-QGTFTSDYSI-αMeL-LDKK((2-[2-(2-amino-ethoxy)-ethoxy]-acetyl)-(γGlu)-CO-(CH2)18-CO2H)AQ-Aib-AFIEYLLEGGPSSGAPPPS-NH2], the “AUC (0-τ) and Cmax dose proportionality” value ([1]; 3.0, 6.0 and 12.0 mg, Week 12) is reported as “increase in a dose-proportional manner”, the AUC(0-inf) ([1]; 0.5 mg, 0.5 mg QW, Day 1) is reported as 7180 ng·h/mL and the Cmax ([1]; 0.5 mg, 0.5 mg QW, Day 1) is reported as 54.1 ng/mL. The Tmax ([1]; 0.5 mg, 0.5 mg QW, Day 1) was 48 h, the AUC(0-inf) ([1]; 0.5 mg, 0.5 mg QW, Day 29) was 14400 ng·h/mL and the Cmax ([1]; 0.5 mg, 0.5 mg QW, Day 29) was 118 ng/mL. It also gave a Tmax ([1]; 0.5 mg, 0.5 mg QW, Day 29) of 23.8 h, an AUC(0-inf) ([1]; 0.5 mg, 0.5 mg QW, Day 57) of 11800 ng·h/mL and a Cmax ([1]; 0.5 mg, 0.5 mg QW, Day 57) of 86.8 ng/mL. The Tmax ([1]; 0.5 mg, 0.5 mg QW, Day 57) was 36 h, the AUC(0-inf) ([1]; 1.5 mg, 1.5 mg QW, Day 1) was 22600 ng·h/mL and the Cmax ([1]; 1.5 mg, 1.5 mg QW, Day 1) was 228 ng/mL. For the same compound, the Tmax ([1]; 1.5 mg, 1.5 mg QW, Day 1) was 24 h, the AUC(0-inf) ([1]; 1.5 mg, 1.5 mg QW, Day 29) was 35900 ng·h/mL and the Cmax ([1]; 1.5 mg, 1.5 mg QW, Day 29) was 252 ng/mL. For the same compound, the Tmax ([1]; 1.5 mg, 1.5 mg QW, Day 29) was 24 h, the AUC(0-inf) ([1]; 3 mg, 3.0 mg QW, Day 1) was 33800 ng·h/mL and the Cmax ([1]; 3 mg, 3.0 mg QW, Day 1) was 290 ng/mL. It also gave a Tmax ([1]; 3 mg, 3.0 mg QW, Day 1) of 23.8 h, an AUC(0-inf) ([1]; 3 mg, 3.0 mg QW, Day 29) of 68100 ng·h/mL and a Cmax ([1]; 3 mg, 3.0 mg QW, Day 29) of 531 ng/mL. The Tmax ([1]; 3 mg, 3.0 mg QW, Day 29) was 12.2 h, the AUC(0-inf) ([1]; 3 mg, 3.0 mg QW, Day 57) was 66300 ng·h/mL and the Cmax ([1]; 3 mg, 3.0 mg QW, Day 57) was 562 ng/mL. It also gave a Tmax ([1]; 3 mg, 3.0 mg QW, Day 57) of 24 h, an AUC(0-inf) ([1]; 3 mg, 3.0 mg QW, Day 78) of 70100 ng·h/mL and a Cmax ([1]; 3 mg, 3.0 mg QW, Day 78) of 571 ng/mL. It also gave a Tmax ([1]; 3 mg, 3.0 mg QW, Day 78) of 12.2 h, a half-life ([1]; 3 mg, 3.0 mg QW, Day 78, read-out: t½ (converted)) of 137 h and an AUC(0-inf) ([1]; 6 mg, 3.0, 6.0 mg QW, Day 1) of 34500 ng·h/mL. The Cmax ([1]; 6 mg, 3.0, 6.0 mg QW, Day 1) was 292 ng/mL, the Tmax ([1]; 6 mg, 3.0, 6.0 mg QW, Day 1) was 24 h and the AUC(0-inf) ([1]; 6 mg, 3.0, 6.0 mg QW, Day 29) was 86400 ng·h/mL. It also gave a Cmax ([1]; 6 mg, 3.0, 6.0 mg QW, Day 29) of 711 ng/mL, a Tmax ([1]; 6 mg, 3.0, 6.0 mg QW, Day 29) of 12.1 h and an AUC(0-inf) ([1]; 6 mg, 3.0, 6.0 mg QW, Day 57) of 136000 ng·h/mL. The Cmax ([1]; 6 mg, 3.0, 6.0 mg QW, Day 57) was 1170 ng/mL, the Tmax ([1]; 6 mg, 3.0, 6.0 mg QW, Day 57) was 24 h and the AUC(0-inf) ([1]; 6 mg, 3.0, 6.0 mg QW, Day 78) was 137000 ng·h/mL. It also gave a Cmax ([1]; 6 mg, 3.0, 6.0 mg QW, Day 78) of 1060 ng/mL, a Tmax ([1]; 6 mg, 3.0, 6.0 mg QW, Day 78) of 24 h and a half-life ([1]; 6 mg, 3.0, 6.0 mg QW, Day 78, read-out: t½ (converted)) of 135 h. The AUC(0-inf) [1, 3] was 31800 ng·h/mL, the Cmax [1, 3] was 265 ng/mL and the Tmax [1, 3] was 23.9 h. The AUC(0-inf) [1, 4] was 150000 ng·h/mL, the Cmax [1, 4] was 1320 ng/mL and the Tmax [1, 4] was 23.8 h. For the same compound, the AUC(0-inf) [1, 5] was 262000 ng·h/mL, the Cmax [1, 5] was 2070 ng/mL and the Tmax [1, 5] was 24 h. For the same compound, the AUC(0-inf) [1, 6] was 293000 ng·h/mL, the Cmax [1, 6] was 2410 ng/mL and the Tmax [1, 6] was 23.9 h. It also gave a half-life ([1]; 12 mg, 3.0, 6.0, 9.0, 12.0 mg QW, Day 78, read-out: t½ (converted)) of 143 h, a Tmax ([1]; MAD study, after dosing) of 12 to 72 h and a half-life ([1]; MAD study, read-out: mean half-life) of ~144 h. It also gave a half-life ([1]; subcutaneous, across all dose levels, read-out: geometric mean t½) of 135 to 143 h, a CL/F ([1]; 3.0 mg QW, Day 78) of 0.713 mL/min and a CL/F ([1]; 3.0, 6.0 mg QW, Day 78) of 0.728 mL/min. The CL/F ([1]; 3.0, 6.0, 9.0, 12.0 mg QW, Day 78) was 0.683 mL/min, the systolic blood pressure ([2]; 6.0 mg and 12.0 mg arms) was “dose-dependent decrease in systolic blood pressure” and the “GI events (nausea, diarrhea, vomiting)” value ([2]; MAD study) was “mostly mild in severity and dose related”. The heart rate ([2]; MAD study) was “Dose-dependent increases in heart rate”, the tolerability ([2]; MAD study, 12 weeks QW) was “well tolerated” and the “incidences of AEs” value ([2]; doses of ≥6.0 mg) was “increased incidences of AEs”. For the same compound, the safety concerns ([2]; multiple SC doses of 0.5 to 12.0 mg) was “no unexpected safety concerns” and the tolerability ([2]; once-weekly 0.5, 1.5 and 3.0 mg for 12 weeks) was “well tolerated”.
